# Experimental data as given in patent US9200071B2, “Methods of treating cancer using Notch1 and Notch3 antagonists” (Genentech, Inc., priority 2009, dated 2015).
# B1: A13: anti-Notch3 agonist antibody described in US 2008/0118520 A1 as 256A-13 (antibody, V domains shown)
# VH: SQVQLQQSGAELAKPGTSVKMACKASGYTFTTHWMNWVKQRPGQGLEWIGTINPSNDFTDCNQKFKDKAILTADKSSSTAYMQLSSLTSEDSAIYYCASGLTARAWFAYWGQGTLVTVSAA
# VL: RATISCRASQSVTTSNYSYMHWFQQKPGQPPKLLIKYASNLDSGVPARFSGSGSGTDFTLNIHPVEEEDTATFYCQHSWEIPYTFGGGTNLEIKRADAAPTV
# How the values were obtained:
# Format in all cases: cell-based, human
# [1] = system: P-12 Ichikawa cell line; experiment: Cell diameter measurement (Vi-Cell cell counter); settings: approximately one week; DAPT 5 μM, anti-NRR1 5 μg/ml; FIG. 6
# Method: (§1) The P-12 Ichikawa cell line, the HPB-ALL cell line, and the TALL-1 cell line were grown for approximately one week in control conditions (DMSO alone (the vehicle for DAPT) or anti-gD (an isotype control antibody)); in the presence of the gamma-secretase inhibitor, DAPT (5 μM); or in the presence of anti-NRR1 (5 μg/ml). Cell diameter was measured using a cell counter (Vi-Cell, Beckman Coulter). Consistent with the growth inhibition studies, the P-12 Ichikawa line is resistant to both DAPT and anti-NRR1, as indicated by relatively consistent cell diameter among treated and control cells.
# [2] = system: HPB-ALL cell line; experiment: Cell diameter measurement (Vi-Cell cell counter); settings: approximately one week; DAPT 5 μM, anti-NRR1 5 μg/ml; FIG. 6
# Method: as §1
# [3] = system: TALL-1 cell line; experiment: Cell diameter measurement (Vi-Cell cell counter); settings: approximately one week; DAPT 5 μM, anti-NRR1 5 μg/ml; FIG. 6
# Method: as §1
# [4] = system: activated Notch1 in HPB-ALL cells; experiment: Immunoblot of nuclear fractions with anti-Notch1 Val1744; settings: FIG. 13 upper panel
# Excerpt: (§2) This new anti-Notch3 ICD antibody was then used to investigate the activation status of Notch3 in the three classes of T-ALL. […] 3T3 cells expressing Notch1 (3T3-N1) and MDA-MB-468 (MB468) cells were used as controls. Consistent with the growth inhibition studies described in the previous figures, TALL-1 expresses high levels of activated Notch3 but not activated Notch1 (compare TALL-1 lanes in lower and upper panels, respectively). Furthermore, production of activated Notch3 in TALL-1 could be blocked by DAPT but not anti-NRR1 (lower panel). Moreover, as expected, HPB-ALL cells express high levels of activated Notch1, which can be blocked by DAPT or anti-NRR1 antibody (see HPB-ALL lanes in upper panel). As to the controls, activated Notch1 is seen as a lighter, up-shifted band in the 3T3-N1 cells treated with Jagged (+jag) (upper panel).
# [5] = system: CCRF-CEM cells; experiment: Cell cycle status by propidium iodide FACS (growth sensitivity); settings: eight days; DAPT 5 μM, anti-NRR1 5 μg/ml, anti-NRR3 10 μg/ml; FIG. 10A-10F
# Method: (§3) FIGS. 3-5 presents the classification of three representative human T-ALL cell lines. Those cell lines include the P-12 Ichikawa cell line, the HPB-ALL cell line, and the TALL-1 cell line. The cells were grown for eight days in control conditions (DMSO alone (the vehicle for DAPT) or anti-gD (an isotype control antibody)); in the presence of the gamma-secretase inhibitor, DAPT (5 μM); or in the presence of anti-NRR1 (5 μg/ml). The cells were fixed, stained with propidium iodide and prepared for FACS to analyze the cell cycle status, according to standard procedures. […] HPB-ALL cells are sensitive to both DAPT and anti-NRR1 (FIG. 4A-4D), with DAPT- and anti-NRR1-treated cells showing about 78% and 76% of cells in G0/G1, respectively, compared to about 33-34% of the control cells. TALL-1 cells are sensitive to DAPT but resistant to anti-NRR1 (FIG. 5A-5D), with about 87% of DAPT-treated cells in G0/G1, compared to about 55% of anti-NRR1-treated cells and about 53-54% of control cells. It is noted that Notch1 is not mutated in TALL-1 cells. […] (Data not shown and FIG. 10.)
# (§4) As described above, two of the three classes of T-ALL, represented by HPB-ALL and TALL-1, are both sensitive to GSI but differ in that the former is sensitive to anti-NRR1, whereas the latter is not. […] To address this question, CCRF-CEM cells, HPB-ALL cells, and TALL-1 cells were treated as described for FIGS. 3-5, except that a Notch3-specific antagonist was also included at 10 μg/ml in a subset of the treatments to test whether growth depended on Notch3 signaling. The Notch3-specific antagonist used in these studies was mouse anti-human Notch3 monoclonal antibody 256A-4, the isolation and characterization of which are discussed in U.S. Patent Application Publication No. US 2008/0226621 A1. For convenience, 256A-4 is referred to herein as “anti-NRR3,” and is also referred to as “α-N3” in the figures.
# [6] = system: HPB-ALL cell line; experiment: as above; settings: eight days, DAPT 5 μM, anti-NRR1 5 μg/ml
# Method: as §3, §4
# [7] = system: TALL-1 cell line; experiment: as above; settings: eight days, DAPT 5 μM, anti-NRR1 5 μg/ml; for percentage of cells in G0/G1: control cells about 53-54%
# Method: as §3, §4
# [8] = system: P-12 Ichikawa cell line; experiment: Apoptosis by Annexin V / 7-AAD FACS; settings: approximately one week; DAPT 5 μM, anti-NRR1 5 μg/ml; FIG. 7
# Method: (§5) The P-12 Ichikawa cell line, the HPB-ALL cell line, and the TALL-1 cell line were treated as described above for FIG. 6. The cells were analyzed by FACS, with staining for 7-AAD (cell death marker) on the x-axis of FIG. 7, and staining for Annexin V (marker for apoptosis) on the y-axis of FIG. 7. […] In contrast, P-12 Ichikawa cells are resistant to both treatments, whereas TALL-1 cells are sensitive to DAPT but not to anti-NRR1.
# [9] = system: HPB-ALL cell line; experiment: Apoptosis by Annexin V / 7-AAD FACS; settings: approximately one week; DAPT 5 μM, anti-NRR1 5 μg/ml; FIG. 7
# Method: as §5
# [10] = system: TALL-1 cell line; experiment: Apoptosis by Annexin V / 7-AAD FACS; settings: approximately one week; DAPT 5 μM, anti-NRR1 5 μg/ml; FIG. 7
# Method: as §5
# [11] = system: P-12 Ichikawa cell line; experiment: Cell proliferation assay by Ki-67 staining FACS; settings: approximately one week; DAPT 5 μM, anti-NRR1 5 μg/ml; FIG. 8 left panel
# Method: (§6) The P-12 Ichikawa cell line, the HPB-ALL cell line, and the TALL-1 cell line were treated as described above for FIG. 6. The cells were analyzed by FACS using Ki-67 staining to mark proliferation (left panel). A shift in the FACS peak to the left indicates lower staining for Ki-67 and decreased proliferation, and conversely, a shift in the FACS peak to the right indicates higher staining for Ki-67 and increased proliferation. Based on this proliferation assay, HPB-ALL was sensitive to both DAPT and anti-NRR1, TALL-1 was sensitive to DAPT but not anti-NRR1, and P-12 Ichikawa cells were resistant to both. […] Low cell counts (i.e., low numbers of Annexin V/7-AAD double negative (non-apoptotic) cells) indicate increased apoptosis, which in turn correlate with decreased proliferation in the left hand panel.
# [12] = system: HPB-ALL cell line; experiment: Cell proliferation assay by Ki-67 staining FACS; settings: approximately one week; DAPT 5 μM, anti-NRR1 5 μg/ml; FIG. 8 left panel
# Method: as §6
# [13] = system: TALL-1 cell line; experiment: Cell proliferation assay by Ki-67 staining FACS; settings: approximately one week; DAPT 5 μM, anti-NRR1 5 μg/ml; FIG. 8 left panel
# Method: as §6
# [14] = system: activated Notch3 in TALL-1; experiment: Immunoblot of nuclear fractions with anti-Notch3 ICD antibody; settings: TALL-1 nuclear fractions; FIG. 13 lower panel
# Excerpt: as §2
# [15] = system: P-12 Ichikawa cell line; experiment: Cell cycle status by propidium iodide FACS (growth sensitivity); settings: eight days; DAPT 5 μM, anti-NRR1 5 μg/ml; FIG. 3A-3D
# Method: as §3
# [16] = system: activated Notch3 in MDA-MB-468 cells; experiment: Immunoblot of MDA-MB-468 cells treated with anti-Notch3 agonist antibody; settings: in the absence of DAPT, FIG. 13 lower panel
# Excerpt: as §2
# [17] = anti-NRR3 10 μg/ml, FIG. 11A-11F
molecule,measurement,setting,value
"C[C@H](NC(=O)Cc1cc(F)cc(F)c1)C(=O)N[C@H](C(=O)OC(C)(C)C)c1ccccc1 [DAPT, N—[N-(3,5-difluorophenacetyl)-L-alanyl]-S-phenylglycine t-butyl ester]",cell diameter (cell size) versus control,[1],resistant
same,cell diameter (cell size) versus control,[2],significantly smaller size
same,cell diameter (cell size) versus control,[3],significantly smaller size
same,activated Notch1 levels (nuclear fraction immunoblot),[4],blocked
same,growth sensitivity (cell cycle status),[5],resistant
same,growth sensitivity (cell cycle status),[6]; [17],sensitive
same,percentage of cells in G0/G1,[6]; [17],about 67%
same,growth sensitivity (cell cycle status),[6]; FIG. 4A-4D,sensitive
same,percentage of cells in G0/G1,"[6]; FIG. 4A-4D, control cells about 33-34%",about 78%
same,percentage of cells in G0/G1,"[7]; anti-NRR3 10 μg/ml, FIG. 9A-9F",~83%
same,growth sensitivity (cell cycle status),[7]; FIG. 5A-5D,sensitive
same,percentage of cells in G0/G1,[7]; FIG. 5A-5D,about 87%
same,apoptotic cell death (Annexin V/7-AAD double positive population),[8],resistant
same,apoptotic cell death (Annexin V/7-AAD double positive population),[9],increases apoptotic cell death
same,apoptotic cell death (Annexin V/7-AAD double positive population),[10],sensitive
same,proliferation (Ki-67 staining),[11],resistant
same,proliferation (Ki-67 staining),[12],sensitive
same,proliferation (Ki-67 staining),[13],sensitive
same,production of activated Notch3 (nuclear fraction immunoblot),[14],blocked
same,growth sensitivity (cell cycle status),[15],resistant
B1,activated Notch3 band after agonist antibody treatment,[16],faint but detectable band
